Experimental data taken from patent publication US10010560B2, “Small molecule HSP70 inhibitors” (THE TRUSTEES OF THE UNIVERSITY OF PENNSYLVANIA, priority 2014, dated 2018).
Read-outs that look alike come from different tables or passages of the source.

Columns and labels:
[1] = molecular target: T1, ADP-HSP70 (WT, aa 1-641) (Homo sapiens, UniProt P0DMV8, E110D); test: ITC binding to ADP-bound full-length HSP70
T1 construct: Full-length recombinant proteins of HSP70 (aa 1-641) as well as DnaK (aa 1-638); His6 (N); made in house; host or cells: E. coli BL21 Star (DE3)
T1 sequence (P0DMV8 whole entry E110D, the tested form may be a part): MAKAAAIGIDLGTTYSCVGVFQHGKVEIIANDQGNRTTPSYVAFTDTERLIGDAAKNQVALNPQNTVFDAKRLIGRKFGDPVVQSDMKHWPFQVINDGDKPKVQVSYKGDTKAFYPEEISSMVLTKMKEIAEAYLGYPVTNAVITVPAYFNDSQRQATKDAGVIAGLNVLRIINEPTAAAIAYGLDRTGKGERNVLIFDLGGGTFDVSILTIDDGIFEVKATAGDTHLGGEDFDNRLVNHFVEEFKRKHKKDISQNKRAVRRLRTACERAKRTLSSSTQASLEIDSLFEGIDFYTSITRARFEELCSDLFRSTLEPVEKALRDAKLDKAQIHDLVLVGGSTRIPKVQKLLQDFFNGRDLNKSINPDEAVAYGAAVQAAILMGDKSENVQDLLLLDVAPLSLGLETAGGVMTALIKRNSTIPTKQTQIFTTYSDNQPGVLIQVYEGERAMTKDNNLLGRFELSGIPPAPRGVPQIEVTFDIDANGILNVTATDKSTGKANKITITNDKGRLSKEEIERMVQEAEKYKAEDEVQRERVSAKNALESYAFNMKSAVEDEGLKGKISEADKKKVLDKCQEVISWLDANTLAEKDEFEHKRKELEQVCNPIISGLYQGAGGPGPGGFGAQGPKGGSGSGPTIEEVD
Description: The human stress-inducible HSP70 (residues 1-641 or 386-616 of SEQ ID NO: 2) and E. coli DnaK (residues 1-638, 389-607, or 393-507 of SEQ ID NO: 4) were cloned into the pET25 vector (EMD Millipore Chemicals, Inc., Billerica, Mass., USA) between the NdeI and XhoI restriction sites. The full-length HSP70 and DnaK mutants were constructed by PCR-based site-directed mutagenesis using the QuikChange™ Site-Directed Mutagenesis Kit (Agilent Technologies, Inc., Santa Clara, Calif., USA). All plasmid inserts were verified by DNA sequencing. All HSP70 and DnaK variants were produced with a N-terminal His6-tag in the E. coli BL21 Star (DE3) strain (Invitrogen catalog number C6010-03). The resulting strains were grown at 37° C. in LB medium containing 50 μg/mL of carbenicillin (Sigma-Aldrich Co., St. Louis, Mo., USA). At an OD600 about 0.3 to about 0.5, protein expression was induced with 0.5 mM isopropyl-β-D-thiogalactopyranoside (IPTG), and cells were subsequently grown at 25° C. for about 16 h. Cells were collected by centrifugation and resuspended in the Bugbuster® Master Mix (EMD Millipore Chemicals catalog number 71456-4), supplemented with protease inhibitors, 1 mM diethiothreitol (DTT) and 20 mM imidazole. The His6-tagged fusion proteins were isolated on Ni^2+-chelating resins (Ni-NTA Superflow, Qiagen catalog number 30410) by standard procedures. When necessary, size-exclusion chromatography on a Superdex® 200 or a Superose® 6 10/300 GL columns (GE Healthcare) analytical column pre-equilibrated with 1× Dulbecco's Phosphate Buffered Saline (DPBS—Invitrogen 14190-136), 1 mM Tris-HCl (pH 7.4) or 10 mM Tris-HCl (pH 7) was used as the final purification step. The purified DnaK proteins were dialyzed thoroughly against 1× DPBS with 5 mM DTT at 4° C., for crystallization trials involving the small molecule inhibitor PET-16. For isothermal titration calorimetry studies, all HSP70 and DnaK variants were dialyzed extensively against the buffers as noted below under the section entitled “Isothermal Titration calorimetry Studies”. The dialyzed proteins were subsequently microcentrifugated at 15,000×g for 5 min at 4° C. and aliquots of the soluble proteins were stored at −80° C.
All ITC experiments were performed using a MicroCal VP-ITC isothermal titration calorimeter (MicroCal). Both full-length HSP70 and DnaK proteins and DnaK (aa 393-507) proteins were prepared in 1 mM Tris-HCl (pH 7.4) buffer containing 3% dimethylsulfoxide (DMSO). The HSP70 (aa 386-616) protein was prepared in buffer containing 3% DMSO and 10 mM Tris-HCl, pH 7. The syringe was loaded with purified protein in either 1 mM Tris-HCl (pH 7.4) buffer containing 3% DMSO or 10 mM Tris-HCl (pH 7) buffer containing 3% DMSO. The sample cell of the calorimeter was loaded with PES, PET-16 or NRLLLTG (SEQ ID NO: 7) prepared in the same buffer. All solutions were degassed for 5 min.
The titrations involving the full-length purified proteins were performed at 25° C. with injection volumes of 12 μL and a spacing of 300 s. The titrations involving the purified HSP70 (aa 386-616) and DnaK (aa 393-507) were performed at 42° C. with injection volumes of 12 μL and a spacing of 300 s. Heat from the pre-injection was not used during fitting. The data were fit using a one-site binding model available in the Origin® ITC data analysis software (MicroCal Origin® V5.0, MicroCal Software, Northampton, Mass.). Error values obtained from the MicroCal Origin® V5.0 software were averaged and reported. […]

[2] = molecular target: T2, ATP-bound DnaK (Escherichia coli, UniProt P0A6Y8); test: ITC binding to ATP-bound DnaK; set-up: species or system E. coli; conditions: in words
T2 construct: Full-length recombinant proteins of HSP70 (aa 1-641) as well as DnaK (aa 1-638); His6 (N); made in house; host or cells: E. coli BL21 Star (DE3)
T2 sequence (P0A6Y8 whole entry, the tested form may be a part): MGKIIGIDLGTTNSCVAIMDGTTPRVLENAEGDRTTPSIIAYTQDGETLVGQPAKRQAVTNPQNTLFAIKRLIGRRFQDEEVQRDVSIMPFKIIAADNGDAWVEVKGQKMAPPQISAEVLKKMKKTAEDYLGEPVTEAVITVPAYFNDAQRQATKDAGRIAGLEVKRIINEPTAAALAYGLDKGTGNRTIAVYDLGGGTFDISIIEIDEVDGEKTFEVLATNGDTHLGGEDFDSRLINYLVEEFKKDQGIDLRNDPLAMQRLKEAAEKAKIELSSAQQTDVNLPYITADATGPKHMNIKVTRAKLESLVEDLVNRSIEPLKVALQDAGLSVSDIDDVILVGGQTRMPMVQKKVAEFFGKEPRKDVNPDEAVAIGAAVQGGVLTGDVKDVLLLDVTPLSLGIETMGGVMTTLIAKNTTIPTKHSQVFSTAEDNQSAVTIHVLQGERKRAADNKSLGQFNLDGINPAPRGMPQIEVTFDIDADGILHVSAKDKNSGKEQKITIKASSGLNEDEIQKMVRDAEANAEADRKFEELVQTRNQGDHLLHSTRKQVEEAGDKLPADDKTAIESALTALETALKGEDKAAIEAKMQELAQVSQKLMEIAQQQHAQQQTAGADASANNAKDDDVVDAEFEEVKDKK
Description: The human stress-inducible HSP70 (residues 1-641 or 386-616 of SEQ ID NO: 2) and E. coli DnaK (residues 1-638, 389-607, or 393-507 of SEQ ID NO: 4) were cloned into the pET25 vector (EMD Millipore Chemicals, Inc., Billerica, Mass., USA) between the NdeI and XhoI restriction sites. The full-length HSP70 and DnaK mutants were constructed by PCR-based site-directed mutagenesis using the QuikChange™ Site-Directed Mutagenesis Kit (Agilent Technologies, Inc., Santa Clara, Calif., USA). All plasmid inserts were verified by DNA sequencing. All HSP70 and DnaK variants were produced with a N-terminal His6-tag in the E. coli BL21 Star (DE3) strain (Invitrogen catalog number C6010-03). The resulting strains were grown at 37° C. in LB medium containing 50 μg/mL of carbenicillin (Sigma-Aldrich Co., St. Louis, Mo., USA). At an OD600 about 0.3 to about 0.5, protein expression was induced with 0.5 mM isopropyl-β-D-thiogalactopyranoside (IPTG), and cells were subsequently grown at 25° C. for about 16 h. Cells were collected by centrifugation and resuspended in the Bugbuster® Master Mix (EMD Millipore Chemicals catalog number 71456-4), supplemented with protease inhibitors, 1 mM diethiothreitol (DTT) and 20 mM imidazole. The His6-tagged fusion proteins were isolated on Ni^2+-chelating resins (Ni-NTA Superflow, Qiagen catalog number 30410) by standard procedures. […]

[3] = molecular target: T3, HSP70 (Homo sapiens, UniProt P0DMV8, E110D); test: ITC of HSP70 preincubated with competing compound; type: binding; conditions: ITC competition
T3 construct: His6 (N); made in house; host or cells: E. coli BL21 Star (DE3)
T3 sequence (P0DMV8 whole entry E110D): as the sequence (P0DMV8 whole entry E110D, the tested form may be a part) above
Description: FIGS. 3A-3L illustrate that PET-16 binds directly to ADP-bound HSP70 and DnaK. Specifically, FIGS. 3A-3H are isothermal calorimetric titration (ITC) assays of the indicated compounds (NRLLLTG—SEQ ID NO: 7, PES or PET-16) with purified HSP70-ADP, DnaK-ADP or HSP70-ATP proteins. The data are representative of three independent experiments. FIGS. 3I and 3J are ITC assays for the interaction between HSP70 (aa 386-616 of SEQ ID NO: 2) protein and PET-16 (I) or TPP (J). Binding constants (Kd values) are shown (average and s.d. from three independent experiments). PET-16 also binds directly to the purified, full-length, nucleotide-free HSP70 protein, with a reported dissociation constant of 5.2+/−0.1 micromolar, which is the average and standard deviation from two independent experiments (data not shown). FIG. 3K is ITC assay of HSP70 protein preincubated with ADP and PES for 1 h. The mixture was titrated into the sample cell containing PET-16. The data are representative of three independent ITC experiments. FIG. 3L are western blots of human lung carcinoma (H1299) cells that were pretreated with DMSO or excess (8×) PET-16 for 1 h prior to the addition of 20 μM B-PES for 5 h and examined for the expression of HSP70 or BCL-xL. B-PES-containing complexes were captured by Avidin resins and immunoblotted either with anti-HSP70 or anti-BCL-xL antibody. […]

[4] = molecular target: T4, ADP-DnaK (WT, aa 1-638) (Escherichia coli, UniProt P0A6Y8); test: ITC binding to ADP-bound full-length DnaK; set-up: species or system E. coli
T4 construct: Full-length recombinant proteins of HSP70 (aa 1-641) as well as DnaK (aa 1-638); His6 (N); made in house; host or cells: E. coli BL21 Star (DE3)
T4 sequence (P0A6Y8 whole entry, the tested form may be a part): as the sequence (P0A6Y8 whole entry, the tested form may be a part) above
Description: All ITC experiments were performed using a MicroCal VP-ITC isothermal titration calorimeter (MicroCal). Both full-length HSP70 and DnaK proteins and DnaK (aa 393-507) proteins were prepared in 1 mM Tris-HCl (pH 7.4) buffer containing 3% dimethylsulfoxide (DMSO). The HSP70 (aa 386-616) protein was prepared in buffer containing 3% DMSO and 10 mM Tris-HCl, pH 7. The syringe was loaded with purified protein in either 1 mM Tris-HCl (pH 7.4) buffer containing 3% DMSO or 10 mM Tris-HCl (pH 7) buffer containing 3% DMSO. […] All solutions were degassed for 5 min.
The titrations involving the full-length purified proteins were performed at 25° C. with injection volumes of 12 μL and a spacing of 300 s. The titrations involving the purified HSP70 (aa 386-616) and DnaK (aa 393-507) were performed at 42° C. with injection volumes of 12 μL and a spacing of 300 s. Heat from the pre-injection was not used during fitting. […]

[5] = molecular target: T5, ATP-HSP70 (WT) (Homo sapiens, UniProt P0DMV8, E110D); test: ITC binding to ATP-bound full-length HSP70
T5 construct: Full-length recombinant proteins of HSP70 (aa 1-641) as well as DnaK (aa 1-638); His6 (N); made in house; host or cells: E. coli BL21 Star (DE3)
T5 sequence (P0DMV8 whole entry E110D, the tested form may be a part): as the sequence (P0DMV8 whole entry E110D, the tested form may be a part) above
Description: The human stress-inducible HSP70 (residues 1-641 or 386-616 of SEQ ID NO: 2) and E. coli DnaK (residues 1-638, 389-607, or 393-507 of SEQ ID NO: 4) were cloned into the pET25 vector (EMD Millipore Chemicals, Inc., Billerica, Mass., USA) between the NdeI and XhoI restriction sites. The full-length HSP70 and DnaK mutants were constructed by PCR-based site-directed mutagenesis using the QuikChange™ Site-Directed Mutagenesis Kit (Agilent Technologies, Inc., Santa Clara, Calif., USA). All plasmid inserts were verified by DNA sequencing. All HSP70 and DnaK variants were produced with a N-terminal His6-tag in the E. coli BL21 Star (DE3) strain (Invitrogen catalog number C6010-03). The resulting strains were grown at 37° C. in LB medium containing 50 μg/mL of carbenicillin (Sigma-Aldrich Co., St. Louis, Mo., USA). At an OD600 about 0.3 to about 0.5, protein expression was induced with 0.5 mM isopropyl-β-D-thiogalactopyranoside (IPTG), and cells were subsequently grown at 25° C. for about 16 h. Cells were collected by centrifugation and resuspended in the Bugbuster® Master Mix (EMD Millipore Chemicals catalog number 71456-4), supplemented with protease inhibitors, 1 mM diethiothreitol (DTT) and 20 mM imidazole. The His6-tagged fusion proteins were isolated on Ni^2+-chelating resins (Ni-NTA Superflow, Qiagen catalog number 30410) by standard procedures. When necessary, size-exclusion chromatography on a Superdex® 200 or a Superose® 6 10/300 GL columns (GE Healthcare) analytical column pre-equilibrated with 1× Dulbecco's Phosphate Buffered Saline (DPBS—Invitrogen 14190-136), 1 mM Tris-HCl (pH 7.4) or 10 mM Tris-HCl (pH 7) was used as the final purification step. The purified DnaK proteins were dialyzed thoroughly against 1× DPBS with 5 mM DTT at 4° C., for crystallization trials involving the small molecule inhibitor PET-16. For isothermal titration calorimetry studies, all HSP70 and DnaK variants were dialyzed extensively against the buffers as noted below under the section entitled “Isothermal Titration calorimetry Studies”. […]

[6] = ITC, wild-type full-length ADP-bound HSP70

Compound | Kd [1, 6] | interaction with ATP-bound DnaK [2] | binding to HSP70 after pre-incubation with the other compound (PES / PET-16) [3] | Kd ([4]; ITC, wild-type full-length ADP-bound DnaK, read-out: Kd) | interaction with ATP-bound HSP70 ([5]; in words) | Kd ([1]; dimeric ADP-bound HSP70 (N=0.5)) | Kd ([1]; tetrameric ADP-bound HSP70 (N=0.25)) | Kd [4] | Kd ([5]; wild-type full-length ATP-bound HSP70)
NS(=O)(=O)C#Cc1ccccc1 [PES, 2-Phenylethynesulfonamide, reference compound] | ~5.7 µM | notably reduced | impaired | ~6.8 µM | notably reduced | – | – | – | –
C(#C[P+](c1ccccc1)(c1ccccc1)c1ccccc1)c1ccccc1.[Br-] [PET-16, triphenyl(phenylethynyl)phosphonium bromide] | ~3.8 µM | notably reduced | markedly reduced | – | – | 3.8 µM | 1.3 µM | ~6 µM | 130 ± 8.3 µM
